Patent US8987195B2 (priority 2012, dated 2015)
Read-outs that look alike come from different tables or passages of the source.

Assays:
HCV genotype 1b replicon = test: HCV replicon assay, genotype 1b replicon EC50; type: cell-based, Hepatitis C virus; settings: Hepatitis C virus, genotype 1b replicon, read-out: EC50 [gt-1b]
How it was run: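 Compound dilution series incubated 24-48 h, G418 absent, with HCV genotype 1b replicon cell lines kept under G418 selection beforehand. Luciferase signal or replicon RNA, by ^32P hybridization/protection or TaqMan normalized to cyclophilin A, was measured after washing and lysis. Four-parameter fitting against DMSO control gave EC50.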

[1] = biological target: HCV NS3/4A protease genotype 1b (Hepatitis C virus genotype 1b, UniProt P26663); test: HCV NS3/4A protease time-resolved fluorescence (TRF) assay, Ki against genotype 1b; type: biochemical; settings: IC50 [gt-1b] (nM), NS3/4A genotype 1b, enzyme 0.2 nM
How it was run: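 NS3/4A enzyme was preincubated 30 min with inhibitor in 50 mM HEPES pH 7.5, 150 mM NaCl, 15% glycerol, 0.15% Triton X-100, 10 mM DTT, 0.1% PEG 8000; 25 nM europium TRF peptide substrate added, 2.5 h at room temperature. Enzyme: 0.2 nM (1b), 0.4 nM (A156T), 0.025 nM (3a). Ki from IC50 via Cheng-Prusoff.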

SMILES	EC50 (HCV genotype 1b replicon; HCOOH salt)	IC50 ([1]; HCOOH salt)	EC50 (HCV genotype 1b replicon)	IC50 [1]
COc1ccc2c3c(c(C4CC4)nc2c1)O[C@]1(CC3)C[C@H]2C(=O)N[C@]3(C(=O)NS(=O)(=O)C4(C)CC4)C[C@H]3/C=C\CCCCC[C@H](NC(=O)CC(C)(C)C)C(=O)N2C1 [Example 269, (2R,6S,12Z,13aS,14aR,16a5)-5′-cyclopropyl-6-[(3,3-dimethylbutanoyl)amino]-8′-methoxy-N-[(1-methylcyclopropyl)sulfonyl]-5,16-dioxo-1,1′,2′,6,7,8,9,10,11,13a,14,15,16,16a-tetradecahydrospiro[cyclopropa[e]pyrrolo[1,2-a][1,4]diazacyclopentadecine-2,3′-pyrano[2,3-c]quinoline]-14a(5H)-carboxamide]	11.9 nM	0.337 nM	–	–
COc1ccc2c3c(c(C4CC4)nc2c1)O[C@]1(CC3)C[C@H]2C(=O)N[C@]3(C(=O)NS(=O)(=O)C4(C)CC4)C[C@H]3/C=C\CCCCC[C@H](NC(=O)CC3CCCC3)C(=O)N2C1 [Example 270, (2R,6S,12Z,13aS,14aR,16aS)-6-[(cyclopentylacetyl)amino]-5′-cyclopropyl-8′-methoxy-N-[(1-methylcyclopropyl)sulfonyl]-5,16-dioxo-1,1′,2′,6,7,8,9,10,11,13a,14,15,16,16a-tetradecahydrospiro[cyclopropa[e]pyrrolo[1,2-a][1,4]diazacyclopentadecine-2,3′-pyrano[2,3-c]quinoline]-14a(5H)-carboxamide]	24.2 nM	0.044 nM	–	–
CCCOC(=O)N[C@H]1CCCCC/C=C\[C@@H]2C[C@@]2(C(=O)NS(=O)(=O)C2(C)CC2)NC(=O)[C@@H]2C[C@]3(CCc4c(c(C5CC5)nc5cc(OC)ccc45)O3)CN2C1=O [Example 271, propyl [(2R,6S,12Z,13aS,14aR,16aS)-5′-cyclopropyl-8′-methoxy-14a-{[(1-methylcyclopropyl)sulfonyl]carbamoyl}-5,16-dioxo-1,1′,2′,5,6,7,8,9,10,11,13a,14,14a,15,16,16a-hexadecahydrospiro[cyclopropa[e]pyrrolo[1,2-a][1,4]diazacyclopentadecine-2,3′-pyrano[2,3-c]quinolin]-6-yl]carbamate]	5.9 nM	0.031 nM	–	–
CCCCOC(=O)N[C@H]1CCCCC/C=C\[C@@H]2C[C@@]2(C(=O)NS(=O)(=O)C2(C)CC2)NC(=O)[C@@H]2C[C@]3(CCc4c(c(C5CC5)nc5cc(OC)ccc45)O3)CN2C1=O [Example 272, butyl [(2R,6S,12Z,13aS,14aR,16aS)-5′-cyclopropyl-8′-methoxy-14a-{[(1-methylcyclopropyl)sulfonyl]carbamoyl}-5,16-dioxo-1,1′,2′,5,6,7,8,9,10,11,13a,14,14a,15,16,16a-hexadecahydrospiro[cyclopropa[e]pyrrolo[1,2-a][1,4]diazacyclopentadecine-2,3′-pyrano[2,3-c]quinolin]-6-yl]carbamate]	11.2 nM	0.116 nM	–	–
CCCCCOC(=O)N[C@H]1CCCCC/C=C\[C@@H]2C[C@@]2(C(=O)NS(=O)(=O)C2(C)CC2)NC(=O)[C@@H]2C[C@]3(CCc4c(c(C5CC5)nc5cc(OC)ccc45)O3)CN2C1=O [Example 273, pentyl [(2R,6S,12Z,13aS,14aR,16aS)-5′-cyclopropyl-8′-methoxy-14a-{[(1-methylcyclopropyl)sulfonyl]carbamoyl}-5,16-dioxo-1,1′,2′,5,6,7,8,9,10,11,13a,14,14a,15,16,16a-hexadecahydrospiro[cyclopropa[e]pyrrolo[1,2-a][1,4]diazacyclopentadecine-2,3′-pyrano[2,3-c]quinolin]-6-yl]carbamate]	163 nM	1.13 nM	–	–
COc1ccc2c3c(c(C4CC4)nc2c1)O[C@]1(CC3)C[C@H]2C(=O)N[C@]3(C(=O)NS(=O)(=O)C4(C)CC4)C[C@H]3/C=C\CCCCC[C@H](NC(=O)Oc3ccc(C)cc3)C(=O)N2C1 [Example 274, 4-methylphenyl [(2R,6S,12Z,13aS,14aR,16aS)-5′-cyclopropyl-8′-methoxy-14a-{[(1-methylcyclopropyl)sulfonyl]carbamoyl}-5,16-dioxo-1,1′,2′,5,6,7,8,9,10,11,13a,14,14a,15,16,16a-hexadecahydrospiro[cyclopropa[e]pyrrolo[1,2-a][1,4]diazacyclopentadecine-2,3′-pyrano[2,3-c]quinolin]-6-yl]carbamate]	28.3 nM	0.832 nM	–	–
COc1ccc2c3c(c(C4CC4)nc2c1)O[C@]1(CC3)C[C@H]2C(=O)N[C@]3(C(=O)NS(=O)(=O)C4(C)CC4)C[C@H]3/C=C\CCCCC[C@H](NC(=O)O[C@H]3C[C@@H](C)CC[C@@H]3C(C)C)C(=O)N2C1 [Example 275, (1S,2R,5S)-5-methyl-2-(propan-2-yl)cyclohexyl [(2R,6S,12Z,13aS,14aR,16aS)-5′-cyclopropyl-8′-methoxy-14a-{[(1-methylcyclopropyl)sulfonyl]carbamoyl}-5,16-dioxo-1,1′,2′,5,6,7,8,9,10,11,13a,14,14a,15,16,16a-hexadecahydrospiro[cyclopropa[e]pyrrolo[1,2-a][1,4]diazacyclopentadecine-2,3′-pyrano[2,3-c]quinolin]-6-yl]carbamate]	39.5 nM	11.3 nM	–	–
COc1ccc2c3c(c(C4CC4)nc2c1)O[C@]1(CC3)C[C@H]2C(=O)N[C@]3(C(=O)NS(=O)(=O)C4(C)CC4)C[C@H]3/C=C\CCCCC[C@H](NC(=O)O[C@@H]3C[C@H](C)CC[C@H]3C(C)C)C(=O)N2C1 [Example 276, (1R,2S,5R)-5-methyl-2-(propan-2-yl)cyclohexyl [(2R,6S,12Z,13aS,14aR,16aS)-5′-cyclopropyl-8′-methoxy-14a-{[(1-methylcyclopropyl)sulfonyl]carbamoyl}-5,16-dioxo-1,1′,2′,5,6,7,8,9,10,11,13a,14,14a,15,16,16a-hexadecahydrospiro[cyclopropa[e]pyrrolo[1,2-a][1,4]diazacyclopentadecine-2,3′-pyrano[2,3-c]quinolin]-6-yl]carbamate]	104 nM	3.97 nM	–	–
COc1ccc2c3c(c(C4CC4)nc2c1)O[C@]1(CC3)C[C@H]2C(=O)N[C@]3(C(=O)NS(=O)(=O)C4(C)CC4)C[C@H]3/C=C\CCCCC[C@H](NC(=O)OCCF)C(=O)N2C1 [Example 277, 2-fluoroethyl [(2R,6S,12Z,13aS,14aR,16aS)-5′-cyclopropyl-8′-methoxy-14a-{[(1-methylcyclopropyl)sulfonyl]carbamoyl}-5,16-dioxo-1,1′,2′,5,6,7,8,9,10,11,13a,14,14a,15,16,16a-hexadecahydrospiro[cyclopropa[e]pyrrolo[1,2-a][1,4]diazacyclopentadecine-2,3′-pyrano[2,3-c]quinolin]-6-yl]carbamate]	81.6 nM	1.05 nM	–	–
COc1ccc2c3c(c(C4CC4)nc2c1)O[C@]1(CC3)C[C@H]2C(=O)N[C@]3(C(=O)NS(=O)(=O)C4(C)CC4)C[C@H]3/C=C\CCCCC[C@H](NC(=O)OC3CCOC3)C(=O)N2C1 (stereo partly drawn) [Example 278, tetrahydrofuran-3-yl [(2R,6S,12Z,13aS,14aR,16aS)-5′-cyclopropyl-8′-methoxy-14a-{[(1-methylcyclopropyl)sulfonyl]carbamoyl}-5,16-dioxo-1,1′,2′,5,6,7,8,9,10,11,13a,14,14a,15,16,16a-hexadecahydrospiro[cyclopropa[e]pyrrolo[1,2-a][1,4]diazacyclopentadecine-2,3′-pyrano[2,3-c]quinolin]-6-yl]carbamate]	12.4 nM	0.027 nM	–	–
Cc1nc2ccc(OC(F)F)cc2c2c1O[C@]1(CC2)C[C@H]2C(=O)N[C@]3(C(=O)NS(=O)(=O)C4(C)CC4)C[C@H]3/C=C\CCCCC[C@H](NC(=O)OCC(C)(C)C)C(=O)N2C1 [Example 280, 2,2-dimethylpropyl [(2R,6S,12Z,13aS,14aR,16aS)-9′-(difluoromethoxy)-5′-methyl-14a-{[(1-methylcyclopropyl)sulfonyl]carbamoyl}-5,16-dioxo-1,1′,2′,5,6,7,8,9,10,11,13a,14,14a,15,16,16a-hexadecahydrospiro[cyclopropa[e]pyrrolo[1,2-a][1,4]diazacyclopentadecine-2,3′-pyrano[2,3-c]quinolin]-6-yl]carbamate]	–	–	2.84 nM	0.005 nM
COc1ccc2nc(C(C)C)c3c(c2c1)C(F)(F)C[C@]1(C[C@H]2C(=O)N[C@]4(C(=O)NS(=O)(=O)C5(C)CC5)C[C@H]4/C=C\CCCCC[C@H](NC(=O)OC(C)(C)CCS(=O)(=O)C(C)C)C(=O)N2C1)O3 [Example 281, 2-methyl-4-(propan-2-ylsulfonyl)butan-2-yl [(2S,6S,12Z,13aS,14aR,16aS)-1′,1′-difluoro-9′-methoxy-14a-{[(1-methylcyclopropyl)sulfonyl]carbamoyl}-5,16-dioxo-5′-(propan-2-yl)-1,1′,2′,5,6,7,8,9,10,11,13a,14,14a,15,16,16a-hexadecahydrospiro[cyclopropa[e]pyrrolo[1,2-a][1,4]diazacyclopentadecine-2,3′-pyrano[2,3-c]quinolin]-6-yl]carbamate]	–	–	10.8 nM	0.06 nM
Cc1nc2ccccc2c2c1O[C@]1(CC2)C[C@H]2C(=O)N[C@]3(C(=O)NS(=O)(=O)C4(C)CC4)C[C@H]3/C=C\CCCCC[C@H](NC(=O)NC(C)C)C(=O)N2C1 [Example 282, (2R,6S,12Z,13aS,14aR,16aS)-5′-methyl-N-[(1-methylcyclopropyl)sulfonyl]-5,16-dioxo-6-[(propan-2-ylcarbamoyl)amino]-1,1′,2′,6,7,8,9,10,11,13a,14,15,16,16a-tetradecahydrospiro[cyclopropa[e]pyrrolo[1,2-a][1,4]diazacyclopentadecine-2,3′-pyrano[2,3-c]quinoline]-14a(5H)-carboxamide]	43.6 nM	0.018 nM	–	–
